{"source": "a melting point compilation (Tetko et al.; mined from patent text by program, amines drawn as free bases though some values may be those of a salt)", "data": [{"units": {"melting point": "°C"}, "values": [{"smiles": "Cc1cc(=O)c(Oc2ccc(F)cc2F)c(-c2ccc(S(C)(=O)=O)cc2)o1", "melting point": 191}, {"smiles": "COc1cc(OC)nc(C2(C#N)OC(=O)c3c(-c4ccccc4)ccnc32)n1", "note": "(stereo unspecified)", "melting point": "196 to 198"}, {"smiles": "Cn1cnc(COc2nn3c(-c4ccccc4F)nnc3cc2C2(C)CCOCC2)n1", "melting point": 154}, {"smiles": "O=C(O)c1ncccc1Cl", "melting point": "126 to 128"}, {"smiles": "CS(=O)(=O)OCCCC(c1ccccc1)c1ccccc1", "melting point": "85 to 88"}, {"smiles": "COC(=O)c1c(C)[nH]c(-c2ccncn2)c1C(=O)OC", "melting point": "210 to 211"}, {"smiles": "O=C(C=Cc1ccccc1)SC(Cn1ccnc1)c1ccc(Cl)cc1Cl", "note": "(stereo unspecified)", "melting point": "139 to 141"}, {"smiles": "O=C1NCn2c3ccccc3c(=O)c3cccc1c32", "melting point": "250 to 255"}, {"smiles": "COc1cc(C)ccc1S(=O)(=O)NC(=O)C(c1cc(OC)c2c(c1)OCO2)c1cn(C)c2cc(C=O)ccc12", "note": "(stereo unspecified)", "melting point": 233}, {"smiles": "O=c1[nH]c2ncc(-c3ccc(-c4nc[nH]n4)cc3)nc2n1CC1CCCCC1", "melting point": "336 to 338"}, {"smiles": "Cc1cc(C#N)ccc1-c1ccc(C=O)cc1", "melting point": 130}, {"smiles": "CC(C)c1cccc(C(C)C)c1NC(=O)N(Cc1ccc(N(C)C)cc1)c1ccc(F)cc1", "melting point": "124 to 125"}, {"smiles": "COCc1nnc2ccc(-c3cccc(C(F)(F)F)c3)nn12", "melting point": "149 to 150"}, {"smiles": "CCN(CC)c1ccc(-c2cnc3[nH]cc(C(=O)C4(C)CCCCC4)c3n2)cc1", "melting point": "211 to 213"}, {"smiles": "COc1ccc(C2CCN(c3c(C)c(C)c4c(c3C)[C@@H](c3ccc(C)cc3)C(C)(C)O4)CC2)cc1OC", "melting point": "102 to 106"}, {"smiles": "CC(C)c1n[nH]c2c(NCc3ccccc3O)ncnc12", "melting point": "214 to 217"}, {"smiles": "Nc1ccccc1-c1nc(CCS(=O)(=O)CCO)no1", "melting point": "118 to 119"}, {"smiles": "CCCCCC(=O)c1c(Cn2cncn2)nc2cc(OC)c(OC)cc2c1-c1ccc(OC)c(OC)c1", "melting point": "151 to 152"}, {"smiles": "CN(C)Cc1ccc(CSCCNc2ncc(-c3ccccc3)c(=O)[nH]2)o1", "melting point": "116 to 118"}, {"smiles": "COc1ccnc(CS(=O)c2nc3cc4c(cc3[nH]2)OC(F)(F)C(F)(Cl)O4)c1", "note": "(stereo unspecified)", "melting point": "179 to 181"}, {"smiles": "CC(C)(C(=O)Nc1ccc(Cl)cc1)/C(F)=C/Br", "melting point": "131 to 133"}, {"smiles": "COC(=O)Nc1ccc(OCc2nc3cc(F)ccc3s2)cc1C", "melting point": "165 to 168"}, {"smiles": "C#Cc1ccc(C#N)cc1OC", "melting point": "105 to 106"}, {"smiles": "CCOC(=O)Nc1ccc2oc(CCC(F)(F)F)cc2c1", "melting point": 108}, {"smiles": "COc1cc2nc(N)nc(-c3cccc(Cl)c3)c2cc1OC", "melting point": "242 to 245"}, {"smiles": "CCCc1nc2c(N)nc3cc(OCCN4CCCS4(=O)=O)ccc3c2s1", "melting point": "127 to 130"}, {"smiles": "COC(=O)c1cc2c(cc(C=O)c3ccccc32)s1", "melting point": "196 to 198"}, {"smiles": "COc1ccc(C(O)CN)cc1OC", "note": "(stereo unspecified)", "melting point": "80 to 81"}, {"smiles": "CCNC(=O)Nc1cnc2ccc(-c3ccc(N)c(OC)c3)nc2n1", "melting point": "> 310"}, {"smiles": "CC(=O)Nc1ccc(-c2nn(C(C)=O)c3c2Cc2ccccc2-3)cc1", "melting point": "245 to 246"}, {"smiles": "CCOC(=O)c1oc2cccc(OCC(C)O)c2c1C", "note": "(stereo unspecified)", "melting point": "94 to 96"}, {"smiles": "O=C1CCC2=C(CCc3cc(Cl)c(Cl)cc32)N1", "melting point": "260 to 261"}, {"smiles": "CCCC1=C(Cl)C(=O)c2oc(Cc3ccc(OC)c(Cl)c3)c(C)c2C1=O", "melting point": "134 to 136"}, {"smiles": "Cc1nnc2c(NC(N)=O)cc3cc(-c4ccc(CN5CCCCC5)cc4)ccc3n12", "melting point": "> 260"}, {"smiles": "COC(=O)c1c(-c2ccc(C)cc2)ccnc1O", "melting point": "222 to 224"}, {"smiles": "Cc1ccc2[nH]c(=O)c(C#N)c(N3CCN(C(=O)c4cccs4)CC3)c2c1", "melting point": 269}, {"smiles": "Cc1ncccc1CC(=NC#N)NC1CCc2cc(F)ccc21", "note": "(stereo unspecified)", "melting point": "148 to 149"}, {"smiles": "Nc1nc2ccc(S(=O)(=O)n3c(CCCC(=O)O)cc4nc(Cl)ccc43)cc2o1", "melting point": 273}, {"smiles": "CCOC(=O)/C(=C\\Nc1cc(OC)ccc1OC)c1ccccc1", "melting point": "93 to 94"}, {"smiles": "COc1ccc(NC(=O)C2C(=O)N(C)C(=S)N(C)C2=O)cc1Oc1ccc(C(F)(F)F)cc1Cl", "melting point": "165 to 168"}, {"smiles": "O=C1N(c2ccccc2)c2ccccc2C1(Cc1ccccc1)Cc1ccncc1", "note": "(stereo unspecified)", "melting point": "127 to 128"}, {"smiles": "CCOC(=O)c1sc(NC(=O)c2ccc(C)cc2)nc1C(F)(F)C(F)(F)F", "melting point": "202 to 203"}, {"smiles": "CSC(C)=NOC(=O)NCSN(P1OCC(C)(C)CO1)C(C)(C)C", "melting point": "167 to 168"}, {"smiles": "CCOC(=O)[C@H]1[C@@H]2CC(=O)[C@@](N=[N+]=[N-])(C(=O)OCc3ccccc3)[C@@H]21", "melting point": "46 to 48"}, {"smiles": "CCc1c(-c2cc(C)c(O)c(C)c2)[nH]c2ccc(OC)cc12", "melting point": "176 to 178"}, {"smiles": "CC(C)c1ccc(S(=O)(=O)Nc2ccc(C(F)(F)F)cc2I)cc1", "melting point": 101}, {"smiles": "CC(=O)N(C)c1ccc(CO)cc1", "melting point": "83.5 to 85.5"}, {"smiles": "CCC(C)(C)OC(=O)NC(C)(Cc1c[nH]c2ccccc12)C(=O)NCCc1ccc(OC)cc1", "note": "(stereo unspecified)", "melting point": "128 to 130"}, {"smiles": "CC(C)CCC1(CCC(C)C)c2cc(Cl)ccc2-c2ccc(Cl)cc21", "melting point": "116 to 118"}, {"smiles": "CCCCCCCNC(=O)N(C)c1cccc(-c2ccc(C=CC(=O)O)cc2)c1", "melting point": "125 to 126"}, {"smiles": "COC1CCN(c2cc3c(cc2C#Cc2ccccc2)NC(=O)CC(c2cccc(-n4ccnc4)c2)=N3)CC1", "melting point": 222}, {"smiles": "OC1CCCCC1n1c(NC2CC2)nc2cc(Cl)c(Cl)cc21", "note": "(stereo unspecified)", "melting point": "149 to 151"}, {"smiles": "O=C1CCN(c2ccncc2)CC1", "melting point": "101 to 104"}, {"smiles": "CC12C=CC(=O)C=C1CCC1C2=CCC2(C)C1CCC2(O)C(=O)CCl", "note": "(stereo unspecified)", "melting point": "205 to 206"}, {"smiles": "COc1cc(C(F)(F)F)nn1-c1ccc(NC(=O)c2cccnc2F)cc1", "melting point": "153 to 154"}, {"smiles": "CCCCCCC1(CCCCCC)c2cc(Cl)ccc2-c2ccc(Cl)cc21", "melting point": "66 to 67"}, {"smiles": "C=C(C#N)CN1CCC(C(=O)O)CC1", "melting point": "109 to 111"}, {"smiles": "O=C(O)c1ccc(COc2ccc3cc(-c4csc(-c5ccccc5)n4)ccc3c2Br)cc1", "melting point": "268 to 270"}, {"smiles": "CC(=O)OCC1C=CC(n2cc(F)c(N)nc2=O)O1", "note": "(stereo unspecified)", "melting point": "182 to 184"}, {"smiles": "CSc1nccc(-n2nnc3ccccc32)n1", "melting point": "180 to 182"}, {"smiles": "Cc1n[nH]c(CC#N)c1Oc1cc(Cl)cc(Cl)c1", "melting point": "150 to 152"}, {"smiles": "CC(C)COC(=O)Nc1cc(F)cc(F)c1", "melting point": "71 to 74"}, {"smiles": "O=C(OC[C@@H]1CC(c2ccc(-c3ccc(N4C[C@H](Cn5ccnn5)OC4=O)cc3F)cn2)=NO1)c1cnccn1", "melting point": "205 to 226"}, {"smiles": "COc1ccc2c(c1)C(=O)C(=O)C1=C2OC2(CCN(Cc3ccc(F)cc3)CC2)CS1", "melting point": "219 to 221"}, {"smiles": "CC1(C)Cc2cc(S(=O)(=O)Cl)ccc2O1", "melting point": "75 to 77"}, {"smiles": "O=S(=O)(Cl)c1c(Cl)sc(Cl)c1Cl", "melting point": 55}, {"smiles": "CCC(C)(C)Nc1c(NCc2c(C)cccc2C)c(=O)c1=O", "melting point": "227 to 231"}, {"smiles": "CN1Cc2c(C(=O)NN)ncn2-c2ccc(F)cc2C1=O", "melting point": "288 to 290"}, {"smiles": "CN(C(=O)CN(C(=O)CNC(=O)Nc1cccc(C#N)c1)c1ccccc1)c1ccccc1", "melting point": 204}, {"smiles": "CS(=O)(=O)OCC(C(=O)N1CCC(=C2c3ccc(Cl)cc3CCc3cccnc32)CC1)c1ccccc1", "note": "(stereo unspecified)", "melting point": "111 to 112"}, {"smiles": "CCOc1ccc2c(S(=O)(=O)c3ccc(O)cc3)c(C(C)C)cn2c1", "melting point": "220 to 221"}, {"smiles": "Cc1oc(-c2ccccc2)nc1C(O)COc1ccc(CCCC2OC(=O)NC2=O)cc1", "note": "(stereo unspecified)", "melting point": "146 to 147"}, {"smiles": "CC(C)c1csc(/C=C/c2cc([N+](=O)[O-])ccc2Cl)n1", "melting point": "86 to 89"}, {"smiles": "CCOC(=O)CSc1nc(Cl)cc(NCc2ccc(F)cc2)n1", "melting point": "70 to 75"}, {"smiles": "N#CC1=C(C2CC2)Nc2n[nH]cc2C1c1cccc(N2CCOCC2)c1", "note": "(stereo unspecified)", "melting point": "> 260"}, {"smiles": "CN1CCN(S(=O)(=O)NC(Cc2ccccc2)C(=O)O)CC1", "note": "(stereo unspecified)", "melting point": "> 200"}, {"smiles": "CC(O)C(C)Sc1cc(C(C)(C)C)c(O)c(C(C)(C)C)c1", "note": "(stereo unspecified)", "melting point": 73}, {"smiles": "O=Cc1cc(=O)c(OCc2ccccc2)c(C(=O)c2ccc(Cc3ccc(F)cc3)o2)o1", "melting point": "69 to 72"}, {"smiles": "O=C1c2ccccc2C2(O)Oc3c(ccc4ccccc34)C12O", "note": "(stereo unspecified)", "melting point": "216 to 218"}, {"smiles": "O=C1CCN(C(=O)C(Cc2ccccc2)NC(=O)c2cc3cc(Cl)ccc3[nH]2)CC1", "note": "(stereo unspecified)", "melting point": "258 to 261"}, {"smiles": "CS(=O)(=O)c1ccc(C=Cc2ccc(OCCO)cc2)cc1", "melting point": "224 to 226"}, {"smiles": "CC(=O)Nc1cc(C(C)(C)C)ccc1N1CCOCC1", "melting point": "112 to 113"}, {"smiles": "CCCOc1ccc(S(C)(=O)=O)cc1C(=O)Nc1c(CC)nn(CC2CCCN2C)c1C(N)=O", "note": "(stereo unspecified)", "melting point": "217 to 221"}, {"smiles": "Cc1ccccc1Cc1nc2cc(Cl)c(S(N)(=O)=O)cc2[nH]1", "melting point": "226 to 230"}, {"smiles": "O=C1NCCc2ccccc2N1OCCCCN1CCN(c2cccc(C3CC3)n2)CC1", "melting point": "155 to 156"}, {"smiles": "CC(CC(=O)O)(C(=O)O)c1ccc(F)cc1", "note": "(stereo unspecified)", "melting point": "149 to 152"}, {"smiles": "c1ccc2c(c1)C[C@H]1CSC(=Nc3cccc4ccncc34)N1C2", "melting point": 206}, {"smiles": "CC1(c2ccc(OCc3ccccc3)c(Br)c2)C(=O)Nc2cc(Cl)cc(Cl)c2C1=O", "note": "(stereo unspecified)", "melting point": "189 to 190"}, {"smiles": "Oc1ccc(-c2noc(C3CC3)c2-c2ccccc2)cc1", "melting point": "197 to 200"}, {"smiles": "COc1nc(Cl)nc(N)c1-c1ccccc1", "melting point": 213}, {"smiles": "CC(O)=C(C#N)C(=O)Nc1ccc(OC(F)(F)F)cc1", "melting point": "171 to 176"}, {"smiles": "Cc1ccc(S(=O)(=O)OCC(C)(O)C(=O)c2ccccc2)cc1", "note": "(stereo unspecified)", "melting point": "88 to 90"}, {"smiles": "N#Cc1nn(-c2c(Cl)cc(C(F)(F)F)cc2Cl)c(N)c1-c1ccccc1Cl", "melting point": "192 to 193"}, {"smiles": "Oc1ccc2c(c1)CCCC(c1ccccc1)=C2c1ccc(OCCCCCSCCCCF)cc1", "melting point": 163}, {"smiles": "CC1CC(=O)NN=C1c1ccc(-n2ccc(C=O)c2)cc1", "note": "(stereo unspecified)", "melting point": "191 to 192"}, {"smiles": "CC(C)(C)NCC(=O)NCCn1ccc2ncnc(Nc3ccc(Oc4cccc5sncc45)c(Cl)c3)c21", "melting point": "178 to 180"}, {"smiles": "CN1CCN(CCc2[nH]c(=O)[nH]c2-c2ccc(F)cc2)CC1", "melting point": "237 to 239"}, {"smiles": "C1CNC2CNCC2C1", "note": "(stereo unspecified)", "melting point": "65 to 67"}, {"smiles": "c1ccc(-n2c(-c3ccc(OCCN4CCCCC4)cc3)nc3ccccc32)cc1", "melting point": 107}, {"smiles": "FC(F)(F)c1cc(Cc2ccc(Cl)c(C(F)(F)F)c2)ccc1Cl", "melting point": "98 to 101"}, {"smiles": "CC(C)(C)C(=O)COC(=O)C1(C(=O)OCc2ccccc2)CCCN(C(=O)OCC(Cl)(Cl)Cl)C1", "note": "(stereo unspecified)", "melting point": 114}]}]}
